# Experimental data taken from patent publication US8309739B2, “Chemical compounds” (Syngenta Limited, priority 2005, dated 2012).
# Read-outs that look alike come from different tables or passages of the source.
# Columns and labels:
# [1] = system: Heliothis virescens (Tobacco Budworm); assay: Heliothis virescens egg/larva test on artificial diet in 24-well microtiter plate; assay type: in vivo; conditions: 96 h, 200 ppm by pipetting on eggs (0-24 h old) on artificial diet, 4 days, egg mortality, larval mortality, growth regulation
# From the text: Heliothis virescens (Tobacco Budworm):
# [2] = system: Myzus persicae (Green Peach Aphid); assay: Myzus persicae test, roots of infested pea seedlings placed in test solution; assay type: in vivo; conditions: 144 h, read-out: control of Myzus persicae
# From the text: Myzus persicae (Green Peach Aphid):
# Roots of pea seedlings, infested with an aphid population of mixed ages, were placed directly in the test solutions of 24 ppm. 6 days after introduction, samples were checked for mortality.
# [3] = roots of infested pea seedlings in test solutions of 24 ppm, 6 days, mortality
melting point [°C],SMILES,pest or weed control at 200 ppm [1] [%],other results
,Fc1cccc2c1CCC2NC1=NCCS1 (stereo not shown) [Compound 2.019],≥ 80,"pest or weed control at 24 ppm [2, 3]: ≥ 80%"
,FC(F)c1cccc2c1CCC2NC1=NCCS1 (stereo not shown) [Compound 2.058],≥ 80,"pest or weed control at 24 ppm [2, 3]: ≥ 80%"
142 to 143,O=Cc1cccc2c1CCC2NC1=NCCS1 (stereo not shown),,
,Brc1ccc2c(c1)C(NC1=NCCS1)CC2 (stereo not shown) [Compound 2.049],≥ 80,
,"Cc1cccc2c1CCC2NC1=NCCS1 (stereo not shown) [Compound 2.006, (4,5-Dihydro-thiazol-2-yl)-(4-methyl-indan-1-yl)-amine]",,pest or weed control at 24 ppm [2]: ≥ 80%
,CCOC(=O)N1CCS/C1=N\C1CCc2ccccc21 (stereo not shown) [Compound 10.020],≥ 80,
161,Fc1ccc2c(c1F)CCC2NC1=NCCS1 (stereo not shown),,
,Fc1ccc(F)c2c1CCC2NC1=NCCS1 (stereo not shown) [Compound 2.025],≥ 80,"pest or weed control at 24 ppm [2, 3]: ≥ 80%"
,CC(=O)OC1Cc2ccccc2C1NC1=NCCS1 (stereo not shown) [Compound 12.008],≥ 80,
,Fc1cc2c(c(F)c1F)CCC2NC1=NCCS1 (stereo not shown) [Compound 2.028],≥ 80,
191,Oc1cccc2c1CCC2NC1=NCCS1 (stereo not shown),,
103 to 105,NN(C1=NCCS1)C1CCc2ccccc21 (stereo not shown) [Compound 7.013],,
,"N#CN1CCSC1=NC1CCc2ccccc21 (stereo not shown) [Compound 8.017, 2-(Indan-1-ylimino)-thiazolidine-3-carbonitrile]",≥ 80,
63 to 64,CC(C)(C)OC(=O)NN(C1=NCCS1)C1CCc2ccccc21 (stereo not shown) [Compound 7.002],,
,Fc1cccc2c1C(NC1=NCCS1)CC2 (stereo not shown) [Compound 2.052],≥ 80,
165,Fc1c(F)c(F)c2c(c1F)CCC2NC1=NCCS1 (stereo not shown),,
,Fc1cc(F)c2c(c1)C(NC1=NCCS1)CC2 (stereo not shown) [Compound 2.024],≥ 80,"pest or weed control at 24 ppm [2, 3]: ≥ 80%"
91 to 92,CC(=O)N(C(C)=O)N(C1=NCCS1)C1CCc2ccccc21 (stereo not shown) [Compound 7.004],,
,Clc1cccc2c1CCC2NC1=NCCS1 (stereo not shown) [Compound 2.020],≥ 80,
143 to 146,c1ccc(Oc2cccc3c2CCC3NC2=NCCS2)cc1 (stereo not shown) [Compound 2.041],,

melting point [°C],SMILES,pest or weed control at 200 ppm [1] [%],other results
181,Cc1ccc2c(c1)C(NC1=NCCS1)CC2 (stereo not shown),,
,COC(=O)N1CCS/C1=N\C1CCc2ccccc21 (stereo not shown) [Compound 10.015],≥ 80,"pest or weed control at 24 ppm [2, 3]: ≥ 80%"
,CCC(=O)N1CCS/C1=N\C1CCc2ccccc21 (stereo not shown) [Compound 10.011],≥ 80,"pest or weed control at 24 ppm [2, 3]: ≥ 80%"
170 to 171,Ic1cccc2c1CCC2NC1=NCCS1 (stereo not shown),,
131,COC(=O)c1cccc2c1CCC2NC1=NCCS1 (stereo not shown),,
152 to 153,COc1cc2c(cc1C)CCC2NC1=NCCS1 (stereo not shown),,
136,Fc1ccc2c(c1)CCC2NC1=NCCS1 (stereo not shown),,
,Fc1cc(F)c2c(c1F)C(NC1=NCCS1)CC2 (stereo not shown) [Compound 2.030],≥ 80,"pest or weed control at 24 ppm [2, 3]: ≥ 80%"
,CC(=O)N1CCS/C1=N\C1CCc2ccccc21 (stereo not shown) [Compound 10.025],≥ 80,
115 to 117,ON(C1=NCCS1)C1CCc2c(Cl)cccc21 (stereo not shown) [Compound 7.001],,
,ON(C1=NCCS1)C1CCc2c(F)cccc21 (stereo not shown) [Compound 7.006],,"pest or weed control at 24 ppm [2, 3]: ≥ 80%"
,Fc1cccc2c1CC(F)C2NC1=NCCS1 (stereo not shown) [Compound 2.067],≥ 80,"pest or weed control at 24 ppm [2, 3]: ≥ 80%"
60 to 66,CC1(C)CC(NC2=NCCS2)c2ccccc21 (stereo not shown),,
,Cc1cc(F)c2c(c1)C(NC1=NCCS1)CC2 (stereo not shown) [Compound 2.031],≥ 80,"pest or weed control at 24 ppm [2, 3]: ≥ 80%"
144 to 145,O=[N+]([O-])c1cccc2c1CCC2NC1=NCCS1 (stereo not shown) [Compound 2.042],,
101 to 103,CCCC1(CCC)Cc2ccccc2C1NC1=NCCS1 (stereo not shown) [Compound 2.034],,
,Fc1cc(Br)cc2c1CCC2NC1=NCCS1 (stereo not shown) [Compound 2.026],≥ 80,
148 to 149,CCc1cc(F)c2c(c1)C(NC1=NCCS1)CC2 (stereo not shown),,
,CC(C)C(=O)N1CCS/C1=N\C1CCc2ccccc21 (stereo not shown) [Compound 10.006],,"pest or weed control at 24 ppm [2, 3]: ≥ 80%"
,Cc1cccc2c1CCC2N(O)C1=NCCS1 (stereo not shown) [Compound 7.010],≥ 80,
